Laboratory results as given in ChEMBL document CHEMBL5724696, “Autophagy assay results for EUbOPEN Chemogenomics Library” (2024).

Columns and labels:
Format in all cases: functional, Homo sapiens
U2OS [1] = assay: (§1) Here: values are normalized to the negative (DMSO; defined as 0% autophagy induction) and positive (250nM Torin1; mTOR inhibitor; defined as maximal inducer of autophagy = 100%) control compounds and represented as % of autophagy induction. […] The impact of autophagy induction on cells is complex and depends on the affected target. As such, the magnitude of a phenotype may not be equally mirrored in the %-value of autophagy induction and vice versa. The dynamics of the induction may indicate the mode of activation: e.g. activation via phosphorylation or a signaling cascade may occur fast, while activation via transcription factors may take considerably longer. […] Of note, treatment concentrations may be sub-optimal for specific compounds, leading to false negative annotations.; details: Culturing Media DMEM, 1 % Penicillin/Streptomycin, 10% Fetal bovin serum Add-On: No, Screening Media Control DMEM, Screening Media Samples DMEM
U2OS [2] = assay: as §1; details: Culturing Media DMEM, 1 % Penicillin/Streptomycin, 10% Fetal bovin serum Add-On: No, Screening Media Control DMEM, Screening Media Samples DMEM; remark: listed apart in the source
TERT-RPE1 = assay: as §1; details: Culturing Media DMEM/F12 (1:1), 1 % Penicillin/Streptomycin, 10% Fetal bovin serum Add-On: No, Screening Media Control DMEM/F12 (1:1), Screening Media Samples DMEM/F12 (1:1)
[3] = Compound Concentration 0.5 uM, Timepoint 12 hours
[4] = Compound Concentration 0.5 uM, Timepoint 24 hours
[5] = Compound Concentration 0.5 uM, Timepoint 36 hours
[6] = Compound Concentration 0.5 uM, Timepoint 60 hours
[7] = Compound Concentration 2 uM, Timepoint 12 hours
[8] = Compound Concentration 2 uM, Timepoint 24 hours
[9] = Compound Concentration 2 uM, Timepoint 36 hours
[10] = Compound Concentration 2 uM, Timepoint 60 hours
[11] = Compound Concentration 10 uM, Timepoint 12 hours
[12] = Compound Concentration 10 uM, Timepoint 24 hours
[13] = Compound Concentration 10 uM, Timepoint 36 hours
[14] = Compound Concentration 10 uM, Timepoint 60 hours

Compound	autophagy induction (U2OS [1]; [3])	autophagy induction (U2OS [1]; [4])	autophagy induction (U2OS [1]; [5])	autophagy induction (U2OS [1]; [6])	autophagy induction (U2OS [1]; [7])	autophagy induction (U2OS [1]; [8])	autophagy induction (U2OS [1]; [9])	autophagy induction (U2OS [1]; [10])	autophagy induction (U2OS [1]; [11])	autophagy induction (U2OS [1]; [12])	autophagy induction (U2OS [1]; [13])	autophagy induction (U2OS [1]; [14])	autophagy induction (U2OS [2]; [3])	autophagy induction (U2OS [2]; [4])	autophagy induction (U2OS [2]; [5])	autophagy induction (U2OS [2]; [6])	autophagy induction (U2OS [2]; [7])	autophagy induction (U2OS [2]; [8])	autophagy induction (U2OS [2]; [9])	autophagy induction (U2OS [2]; [10])	further results
Cc1nnn(-c2ccc(-c3ccc(C4(C(=O)O)CC4)cc3)cc2)c1NC(=O)O[C@H](C)c1ccccc1	-1.478%	0.2424%	-2.356%	-5.696%	5.693%	3.627%	6.347%	1.322%	9.873%	11.541%	8.0313%	1.41%	2.665%	0.2559%	-0.1373%	0.1457%	3.283%	0.4892%	-0.1911%	-0.4752%	autophagy induction (U2OS [2]; [11]): 8.52%; autophagy induction (U2OS [2]; [12]): 5.722%; autophagy induction (U2OS [2]; [13]): 2.388%; autophagy induction (U2OS [2]; [14]): 0.4676%; autophagy induction (TERT-RPE1; [3]): -8.995%; autophagy induction (TERT-RPE1; [4]): -11.6561%; autophagy induction (TERT-RPE1; [5]): -16.9316%; autophagy induction (TERT-RPE1; [6]): -15.4997%; autophagy induction (TERT-RPE1; [7]): -6.061%; autophagy induction (TERT-RPE1; [8]): -9.8231%; autophagy induction (TERT-RPE1; [9]): -13.2189%; autophagy induction (TERT-RPE1; [10]): 6.862%; autophagy induction (TERT-RPE1; [11]): 6.725%; autophagy induction (TERT-RPE1; [12]): 7.557%; autophagy induction (TERT-RPE1; [13]): 8.9017%; autophagy induction (TERT-RPE1; [14]): 33.5372%
Cc1c(P(=S)(c2ccccc2)c2ccccc2)n2ccccc2[n+]1C/C=C/c1ccccc1.[Br-]	-3.655%	0.9546%	-1.282%	2.215%	-8.9%	-2.047%	1.308%	3.722%	47.8904%	55.2067%	55.7211%	73.829%	-4.037%	-2.741%	-2.914%	-1.509%	-1.2597%	-1.1621%	-2.341%	-2.536%	autophagy induction (U2OS [2]; [11]): -27.5654%; autophagy induction (U2OS [2]; [12]): -9.802%; autophagy induction (U2OS [2]; [13]): -1.3311%; autophagy induction (U2OS [2]; [14]): 3.649%; autophagy induction (TERT-RPE1; [3]): -3.105%; autophagy induction (TERT-RPE1; [4]): -8.592%; autophagy induction (TERT-RPE1; [5]): -12.0302%; autophagy induction (TERT-RPE1; [6]): -17.0508%; autophagy induction (TERT-RPE1; [7]): 2.878%; autophagy induction (TERT-RPE1; [8]): -0.5859%; autophagy induction (TERT-RPE1; [9]): 1.195%; autophagy induction (TERT-RPE1; [10]): -1.818%; autophagy induction (TERT-RPE1; [11]): 24.7841%; autophagy induction (TERT-RPE1; [12]): 51.8106%; autophagy induction (TERT-RPE1; [13]): 73.7567%; autophagy induction (TERT-RPE1; [14]): 96.4076%
Cc1cc(C)cc(C(=O)N(C)[C@H](Cc2ccc(-c3ccccc3)cc2)C(=O)N[C@@H](Cc2c[nH]c3ccccc23)C(=O)O)c1	20.0451%	13.0827%	8.17%	4.398%	5.392%	1.718%	-3.298%	-11.258%	17.6344%	16.7447%	13.7232%	11.2064%	-3.328%	-1.823%	-2.116%	-0.69%	4.263%	2.513%	-0.01148%	-0.5825%	autophagy induction (U2OS [2]; [11]): 3.263%; autophagy induction (U2OS [2]; [12]): 3.281%; autophagy induction (U2OS [2]; [13]): 1.189%; autophagy induction (U2OS [2]; [14]): 0.3614%; autophagy induction (TERT-RPE1; [3]): -14.7352%; autophagy induction (TERT-RPE1; [4]): -10.2057%; autophagy induction (TERT-RPE1; [5]): -9.628%; autophagy induction (TERT-RPE1; [6]): -6.49%; autophagy induction (TERT-RPE1; [7]): -8.48%; autophagy induction (TERT-RPE1; [8]): -8.155%; autophagy induction (TERT-RPE1; [9]): -8.294%; autophagy induction (TERT-RPE1; [10]): -6.276%; autophagy induction (TERT-RPE1; [11]): -5.809%; autophagy induction (TERT-RPE1; [12]): -2.795%; autophagy induction (TERT-RPE1; [13]): -2.603%; autophagy induction (TERT-RPE1; [14]): -5.126%
